Molecular target: T1, KIT(DKIN) (Homo sapiens, UniProt P10721)
T1 construct: KIT(DKIN); made in house
Assay: Binding constant (Kd) measurement, phage-displayed kinase competition binding assay: KIT(DKIN)
Source text: The term “ND” represents non-determined values.

T1 sequence (P10721 589-937 limits assumed): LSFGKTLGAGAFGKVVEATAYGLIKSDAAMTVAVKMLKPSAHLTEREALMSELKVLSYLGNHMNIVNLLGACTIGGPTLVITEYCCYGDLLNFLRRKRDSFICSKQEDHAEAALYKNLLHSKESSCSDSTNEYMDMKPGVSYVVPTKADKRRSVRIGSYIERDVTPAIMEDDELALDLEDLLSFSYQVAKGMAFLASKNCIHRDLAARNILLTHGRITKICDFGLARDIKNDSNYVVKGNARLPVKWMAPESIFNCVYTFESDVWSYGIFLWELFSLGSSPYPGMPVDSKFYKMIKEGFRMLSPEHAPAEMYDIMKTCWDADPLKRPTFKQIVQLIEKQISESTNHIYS

Kd [µM]	SMILES
1 to 10	COc1nc(C)cc(C)c1C(=O)Nc1ccc(NC(=O)Nc2cc(C(C)(C)C)on2)cc1 [Compound N22]
< 0.1	CC(C)(C)c1cc(NC(=O)Nc2ccc(NC(=O)c3ccccc3Cl)cc2)no1 [Compound N23]
0.1 to 1	CC(C)(C)c1cc(NC(=O)Nc2ccc(NC(=O)c3cc(Cl)cc(Cl)c3)cc2)no1 [Compound N29]
0.1 to 1	CCc1ccc(C(=O)Nc2ccc(NC(=O)Nc3cc(C(C)(C)C)on3)cc2)cc1 [Compound N32]
0.1 to 1	CC(C)(C)c1cc(NC(=O)Nc2ccc(NC(=O)c3ccccc3)cc2)no1 [Compound N34]
0.1 to 1	CC(C)(C)c1cc(NC(=O)Nc2ccc(NC(=O)Cc3ccccc3)cc2)no1 [Compound N35]
1 to 10	CC(C)(C)c1cc(NC(=O)Nc2ccc(NC(=O)c3c(F)cccc3F)cc2)no1 [Compound N37]
0.1 to 1	CC(C)(C)c1cc(NC(=O)Nc2ccc(NC(=O)Cc3ccc(-c4ccccc4)cc3)cc2)no1 [Compound N38]
1 to 10	CC(C)(C)c1cc(NC(=O)Nc2ccc(NC(=O)C(N)Cc3ccccc3F)cc2)no1 (stereo not drawn) [Compound N42]
1 to 10	CC(C)(C)c1cc(NC(=O)Nc2ccc(NC(=O)CC(N)c3ccccc3Cl)cc2)no1 (stereo not drawn) [Compound N44]
0.1 to 1	CCOC(=O)CCc1c(C)[nH]c(C(=O)Nc2ccc(NC(=O)Nc3cc(C(C)(C)C)on3)cc2)c1C [Compound N83]
< 0.1	Cc1ccc(NC(=O)c2ccc(NC(=O)Nc3cc(C(C)(C)C)on3)cc2)cc1 [Compound N84]
0.1 to 1	CNC(=O)c1ccc(NC(=O)Nc2cc(C(C)(C)C)on2)cc1 [Compound N85]
0.1 to 1	CC(C)(C)c1cc(NC(=O)Nc2ccc(C(N)=O)cc2)no1 [Compound N86]
0.1 to 1	CC(C)(C)c1cc(NC(=O)Nc2ccc(C(=O)NCCO)cc2)no1 [Compound N87]
0.1 to 1	C[C@H](NC(=O)c1ccc(NC(=O)Nc2cc(C(C)(C)C)on2)cc1)c1ccccc1 [Compound N88]
0.1 to 1	CC(C)(C)c1cc(NC(=O)Nc2ccc(C(=O)NCc3ccccc3)cc2)no1 [Compound N89]
0.1 to 1	CC(C)(C)c1cc(NC(=O)Nc2ccc(C(=O)Nc3ccccc3)cc2)no1 [Compound N90]
1 to 10	CC(C)(C)c1cc(NC(=O)Nc2ccc(NC(=O)C3CCCCC3)cc2)no1 [Compound N91]
1 to 10	C/C=C/C(=O)Nc1ccc(NC(=O)Nc2cc(C(C)(C)C)on2)cc1 [Compound N93]
0.1 to 1	CC(C)(C)c1cc(NC(=O)Nc2ccc(NC(=O)c3c(Cl)cccc3Cl)cc2)no1 [Compound N94]

Kd [µM]	SMILES
1 to 10	CC(C)(C)c1cc(NC(=O)Nc2ccc(NC(=O)c3c(F)cccc3C(F)(F)F)cc2)no1 [Compound N95]
0.1 to 1	CC(C)(C)c1cc(NC(=O)Nc2ccc(NC(=O)CCc3ccccc3)cc2)no1 [Compound N96]
0.1 to 1	CC(C)(C)c1cc(NC(=O)Nc2ccc(C(=O)NCc3ccc4c(c3)OCO4)cc2)no1 [Compound N97]
0.1 to 1	CC(C)(C)c1cc(NC(=O)Nc2ccc(C(=O)Nc3ccc(OCC4CCC4)cc3)cc2)no1 [Compound N100]
0.1 to 1	CC(C)(C)OC(=O)Nc1ccc(NC(=O)Nc2cc(C(C)(C)C)on2)cc1 [Compound N101]
0.1 to 1	Cc1ccncc1C(=O)Nc1ccc(NC(=O)Nc2cc(C(C)(C)C)on2)cc1 [Compound N104]
0.1 to 1	COc1cccc(-c2ccc(C(=O)Nc3ccc(NC(=O)Nc4cc(C(C)(C)C)on4)cc3)o2)c1 [Compound N105]
1 to 10	CC(C)(C)c1cc(NC(=O)Nc2ccc(NC(=O)Cc3csc4ccccc34)cc2)no1 [Compound N107]
0.1 to 1	CC(C)(C)c1cc(NC(=O)Nc2ccc(NC(=O)c3cnc4ccccc4c3)cc2)no1 [Compound N108]
0.1 to 1	CC(C)(C)c1cc(NC(=O)Nc2ccc(NC(=O)c3cccc4nsnc34)cc2)no1 [Compound N109]
1 to 10	CC(C)(C)c1cc(NC(=O)Nc2ccc(NC(=O)c3cccc4c3OCCO4)cc2)no1 [Compound N111]
1 to 10	CC(C)(C)c1cc(NC(=O)Nc2ccc(NC(=O)c3cc(Cl)cn(Cc4ccccc4)c3=O)cc2)no1 [Compound N112]
< 0.1	COC(=O)c1ccc(C(=O)Nc2ccc(NC(=O)Nc3cc(C(C)(C)C)on3)cc2)nc1 [Compound N113]
0.1 to 1	CSc1ncc(Br)c(C(=O)Nc2ccc(NC(=O)Nc3cc(C(C)(C)C)on3)cc2)n1 [Compound N114]
< 0.1	CC(C)(C)c1cc(NC(=O)Nc2ccc(NC(=O)c3cccc4cccnc34)cc2)no1 [Compound N115]
0.1 to 1	Cc1nn(C)c(Cl)c1C(=O)Nc1ccc(NC(=O)Nc2cc(C(C)(C)C)on2)cc1 [Compound N116]
1 to 10	COc1ccc(-c2cc(C(=O)Nc3ccc(NC(=O)Nc4cc(C(C)(C)C)on4)cc3)c(C)o2)cc1 [Compound N118]
0.1 to 1	Cn1cc(C(=O)Nc2ccc(NC(=O)Nc3cc(C(C)(C)C)on3)cc2)c2ccccc21 [Compound N119]
1 to 10	Cc1ccc(-c2cc(C(=O)Nc3ccc(NC(=O)Nc4cc(C(C)(C)C)on4)cc3)c(C)o2)cc1 [Compound N120]
1 to 10	CC(C)(C)c1cc(NC(=O)Nc2ccc(NC(=O)c3cnc(Cl)c(Cl)c3)cc2)no1 [Compound N123]
0.1 to 1	CC(C)(C)c1cc(NC(=O)Nc2ccc(NC(=O)c3csc(-c4ccc(Cl)cc4)n3)cc2)no1 [Compound N124]

Kd [µM]	SMILES
1 to 10	CC(C)(C)c1cc(NC(=O)Nc2ccc(NC(=O)c3ccc(Cl)nc3)cc2)no1 [Compound N125]
1 to 10	CC(C)(C)c1cc(NC(=O)Nc2ccc(NC(=O)c3cc4cc(Br)ccc4s3)cc2)no1 [Compound N126]
1 to 10	CC(C)(C)c1cc(NC(=O)Nc2ccc(NC(=O)c3ccc(Cl)cc3Cl)cc2)no1 [Compound N130]
< 0.1	CC(C)(C)c1cc(NC(=O)Nc2ccc(NC(=O)c3cccc(O)n3)cc2)no1 [Compound N131]
1 to 10	CC(C)(C)c1cc(NC(=O)Nc2ccc(NC(=O)c3cc(Cl)nc(Cl)c3)cc2)no1 [Compound N132]
< 0.1	CC(C)(C)c1cc(NC(=O)Nc2ccc(NC(=O)c3cnccn3)cc2)no1 [Compound N136]
0.1 to 1	COc1cc(C(=O)Nc2ccc(NC(=O)Nc3cc(C(C)(C)C)on3)cc2)nc2ccccc12 [Compound N137]
0.1 to 1	CC(C)(C)c1cc(NC(=O)Nc2ccc(NC(=O)c3nccnc3C(N)=O)cc2)no1 [Compound N138]
0.1 to 1	CC(C)(C)c1cc(NC(=O)Nc2ccc(NC(=O)c3ccnc4ccccc34)cc2)no1 [Compound N141]
0.1 to 1	Cc1ccc(C(=O)Nc2ccc(NC(=O)Nc3cc(C(C)(C)C)on3)cc2)cn1 [Compound N142]
0.1 to 1	CC(C)(C)c1cc(NC(=O)Nc2ccc(NC(=O)c3ccc4cccnc4n3)cc2)no1 [Compound N144]
0.1 to 1	Cc1ncccc1C(=O)Nc1ccc(NC(=O)Nc2cc(C(C)(C)C)on2)cc1 [Compound N145]
1 to 10	CC(C)(C)c1cc(NC(=O)Nc2ccc(NC(=O)c3cnc4cc(C(F)(F)F)ccc4c3O)cc2)no1 [Compound N146]
0.1 to 1	CC(C)(C)c1cc(NC(=O)Nc2ccc(NC(=O)c3cnnc4ccccc34)cc2)no1 [Compound N147]
1 to 10	CC(C)(C)c1cc(NC(=O)Nc2ccc(NC(=O)c3c4ccccc4nc4ccccc34)cc2)no1 [Compound N148]
1 to 10	CC(C)(C)c1cc(NC(=O)Nc2ccc(NC(=O)c3cnc4ccccc4n3)cc2)no1 [Compound N149]
1 to 10	CC(C)(C)c1cc(NC(=O)Nc2ccc(NC(=O)C3CCNCC3)cc2)no1 [Compound N150]
0.1 to 1	CC(C)(C)c1cc(NC(=O)Nc2ccc(NC(=O)c3ccc4ncccc4c3)cc2)no1 [Compound N151]
> 10	CC(C)(C)c1cc(NC(=O)Nc2ccc(NC(=O)C3CNCCN3)cc2)no1 (stereo not drawn) [Compound N152]
0.1 to 1	CC(C)(C)c1cc(NC(=O)Nc2ccc(C(=O)Nc3ccc(F)cc3F)cc2)no1 [Compound N153]
1 to 10	CC(C)(C)c1cc(NC(=O)Nc2ccc(C(=O)Nc3cccc(C(F)(F)F)c3)cc2)no1 [Compound N154]

Kd [µM]	SMILES
1 to 10	CC(C)(C)c1cc(NC(=O)Nc2ccc(C(=O)Nc3ccc(Cl)cc3)cc2)no1 [Compound N156]
0.1 to 1	CC(C)(C)c1cc(NC(=O)Nc2ccc(NC(=O)c3ccncc3)cc2)no1 [Compound N167]
0.1 to 1	Cc1ccc(CNc2ccc(NC(=O)Nc3cc(C(C)(C)C)on3)cc2)cc1 [Compound O9]
1 to 10	COc1ccc(-c2noc(-c3ccc(NC(=O)Nc4cc(C(C)(C)C)on4)cc3)n2)c2ccccc12 [Compound P3]
0.1 to 1	Cc1cccnc1-c1noc(-c2ccc(NC(=O)Nc3cc(C(C)(C)C)on3)cc2)n1 [Compound P4]
1 to 10	CC(C)(C)c1cc(NC(=O)Nc2ccc(-c3nc(-c4cccc5ccccc45)no3)cc2)no1 [Compound P5]
0.1 to 1	CC(C)(C)c1cc(NC(=O)Nc2ccc(-c3nc(-c4ccc(Cl)cc4)no3)cc2)no1 [Compound P7]
< 0.1	Cc1noc(-c2ccc(NC(=O)Nc3cc(C(C)(C)C)on3)cc2)n1 [Compound P9]
1 to 10	CC(C)(C)c1cc(NC(=O)Nc2ccc(NS(=O)(=O)c3ccccc3)cc2)no1 [Compound V1]
1 to 10	Cc1ccc(S(=O)(=O)Nc2ccc(NC(=O)Nc3cc(C(C)(C)C)on3)cc2)cc1 [Compound V2]
0.1 to 1	Cc1ccc(NC(=O)Nc2cc(C(F)(F)F)cc(Cl)n2)cc1 [Compound W1]
1 to 10	O=C(Nc1ccno1)Nc1ccc(Cl)cc1Cl [Compound Z12]
0.1 to 1	Cn1c(SCC(=O)Nc2ccc(NC(=O)Nc3cc(C(C)(C)C)on3)cc2)nnc1-c1cccn(Cc2ccccc2)c1=O [Compound Z47]
0.1 to 1	O=C(Nc1ccc(Cl)cc1)Nc1ccc(-n2nc(Br)c(Br)c2Br)cc1 [Compound Z49]
> 10	Cc1cc(C)n(C(=O)Nc2ccc(Cl)cc2)n1 [Compound Z52]
1 to 10	C=C/C(=C\C=C\Cl)NC(=O)Nc1ccc(C(=O)OCCOC)cc1 [Compound Z54]
> 10	NC(=O)c1c(NC(=O)Nc2ccc(Cl)c(Cl)c2)sc2c1CCCC2 [Compound Z56]
0.1 to 1	Cc1sc(NC(=O)Nc2ccc(Cl)cc2)c(C(N)=O)c1C [Compound Z58]

Source: patent US20050192314A1, “Urea derivatives as C-kit modulators” (Ambit Biosciences Corporation, priority 2003, published 2005)
